Laboratory results as given in ChEMBL document CHEMBL1155740, “Dicerandrols, new antibiotic and cytotoxic dimers produced by the fungus Phomopsis longicolla isolated from an endangered mint” (2001).
Activity calls are given as the source filed them. The rule behind the calls is not given here.

Assays:
[1] = tested on: Bacillus subtilis; experiment: Antibacterial activity against Bacillus subtilis at 100 ug/disk after overnight incubation by agar diffusion method; assay type: functional; settings: read-out: IZ
[2] = tested on: Staphylococcus aureus; experiment: Antibacterial activity against Staphylococcus aureus at 100 ug/disk after overnight incubation by agar diffusion method; assay type: functional; settings: read-out: IZ
[3] = tested on: Geotrichum candidum; experiment: Antifungal activity against Geotrichum candidum at 300 ug/disk; assay type: functional, organism-based
[4] = tested on: Saccharomyces cerevisiae; experiment: Antifungal activity against Saccharomyces cerevisiae at 300 ug/disk; assay type: functional, organism-based
[5] = tested on: A549; experiment: Cytotoxicity against human A549 cells after 72 hrs; assay type: functional
[6] = tested on: HCT-116; experiment: Cytotoxicity against human HCT116 cells after 72 hrs; assay type: functional
[7] = tested on: Staphylococcus aureus; experiment: Antibacterial activity against Staphylococcus aureus at 30 ug after overnight incubation by agar diffusion method; assay type: functional; settings: read-out: IZ
[8] = tested on: Bacillus subtilis; experiment: Antibacterial activity against Bacillus subtilis at 30 ug after overnight incubation by agar diffusion method; assay type: functional, organism-based

Compound | zone of inhibition at 100 µg/disc [1] [mm] | zone of inhibition at 100 µg/disc [2] [mm] | Activity [3] | Activity [4] | IC100 [5] [µg/mL] | IC100 [6] [µg/mL] | zone of inhibition at 30 µg/disc [7] [mm] | inhibition zone (IZ) [8] [mm]
CC(=O)O[C@@H]1[C@H](C)CC(O)=C2C(=O)c3c(ccc(-c4ccc5c(c4O)C(=O)C4=C(O)C[C@@H](C)[C@@H](OC(C)=O)[C@@]4(CO)O5)c3O)O[C@@]21CO [DICERANDROL A] | 11 | 10.8 | inactive | inactive | 7 | 7 | – | –
CC(=O)OC[C@]12Oc3ccc(-c4ccc5c(c4O)C(=O)C4=C(O)C[C@@H](C)[C@@H](OC(C)=O)[C@@]4(CO)O5)c(O)c3C(=O)C1=C(O)C[C@@H](C)[C@H]2OC(C)=O [DICERANDROL B] | 9.5 | 8.5 | inactive | inactive | 1.8 | 1.8 | – | –
CC(=O)OC[C@]12Oc3ccc(-c4ccc5c(c4O)C(=O)C4=C(O)C[C@@H](C)[C@@H](OC(C)=O)[C@@]4(COC(C)=O)O5)c(O)c3C(=O)C1=C(O)C[C@@H](C)[C@H]2OC(C)=O [DICERANDROL C] | 8 | 7 | inactive | inactive | 1.8 | 7 | – | –
COc1cc([C@@H]2c3cc4c(cc3[C@@H](O[C@@H]3O[C@@H]5CO[C@@H](C)O[C@H]5[C@H](O)[C@H]3O)[C@H]3COC(=O)[C@H]23)OCO4)cc(OC)c1O [ETOPOSIDE] | – | – | – | – | 30 | 125 | – | –
NC[C@@H]1O[C@H](O[C@H]2[C@@H](O)[C@H](O[C@@H]3[C@@H](O)[C@H](N)C[C@H](N)[C@H]3O[C@H]3O[C@H](CN)[C@@H](O)[C@H](O)[C@H]3N)O[C@@H]2CO)[C@H](N)[C@@H](O)[C@@H]1O [FRAMYCETIN] | – | – | – | – | – | – | 9 | –
NYSTATIN | – | – | – | – | – | – | – | 12
